Test results as given in PubChem BioAssay (NCI).
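Cells were grown in 96-well plates and exposed to each compound for 48 hours at five concentrations; endpoints were interpolated linearly between bracketing concentrations, or set to the highest concentration if not reached. Here, GI50 denotes the concentration required for 50% inhibition of growth. TGI: concentration producing complete growth inhibition.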

Tests used:
Experiment in all cases: NCI-60 cell line screen, 48 h
[1] = tested on: NCI-H226 lung
[2] = tested on: SW-620 colon
[3] = tested on: SF-295 CNS
[4] = tested on: HL-60(TB) leukemia
[5] = tested on: OVCAR-5 ovarian
[6] = tested on: KM12 colon
[7] = tested on: SNB-19 CNS
[8] = tested on: SF-268 CNS
[9] = tested on: SK-MEL-2 melanoma
[10] = tested on: CCRF-CEM leukemia
[11] = tested on: HT29 colon
[12] = tested on: HOP-92 NSCLC

Row | Structure (SMILES) | TGI [1] [µM] | TGI [2] [µM] | TGI [3] [µM] | TGI [4] [µM] | TGI [5] [µM] | TGI [6] [µM] | TGI [7] [µM] | TGI [8] [µM] | TGI [9] [µM] | TGI [10] [µM] | TGI [11] [µM] | TGI [12] [µM] | GI50 [4] [µM] | GI50 [12] [µM] | GI50 [2] [µM] | GI50 [5] [µM] | GI50 [8] [µM] | GI50 [9] [µM] | GI50 [10] [µM]
1 | OCCNCCN1CCN(CCCN2c3ccccc3Sc3ccc(C(F)(F)F)cc32)CC1 | 49.9 | 35.3 | 34.9 | > 100 | 43.5 | 45.1 | 49.2 | 44 | 37.5 | > 100 | 28.3 |  |  |  |  |  |  |  | 
2 | CC(=O)Oc1cc2c(cc1OC(C)=O)OCC(c1ccccc1)C2 (configuration not stated) | 48.5 | 18.5 | 49.8 | 9.01 | 61.7 | 55.3 | 48.5 | 52.2 | 54.7 | 15.1 | 98.3 | 25.3 |  |  |  |  |  |  | 
3 | CCCNC(=O)C(C)C1CCC2(C)C=CC(=O)C(C)=C2C1O (configuration not stated) | > 100 | > 100 | > 100 | > 100 | > 100 | > 100 | > 100 | > 100 | > 100 | > 100 | > 100 | > 100 |  |  |  |  |  |  | 
4 | N#C[C@H](OC1OC(COC2OC(CO)C(O)C(O)C2O)C(O)C(O)C1O)c1ccccc1 (some centres not stated) | > 250 | > 250 | > 250 | > 141 | > 250 | > 250 | > 250 | > 250 | > 250 | > 250 | > 250 | > 250 | > 141 | > 250 |  |  |  |  | 
5 | CN(C)CCCN1c2ccccc2Sc2ccc3ccccc3c21 | 19 | 22.6 | 26.3 | 0.0372 | 24.7 | 19.3 | 28.8 | 23.4 | 13.1 | 8.2 | 12.5 | 21 |  |  |  |  |  |  | 
6 | O=C(CCl)NNC1=Nc2ccc(Cl)cc2SC1 | 6.16 | 4.22 | 28.4 | 3.3 | 4.16 | 9.94 | 26.4 | 3.92 | 14 | 3.08 | 3.4 | 3.02 |  |  |  |  |  |  | 
7 | O=C1OC2(CC1C1(O)C3CC4CC(C3)CC1C4)C1CC3CC(C1)CC2C3 (configuration not stated) | > 100 | > 100 | 73.1 | > 100 |  | > 100 |  | > 100 | > 100 | > 100 | > 100 |  |  |  |  |  |  |  | 
8 | O=C(O)c1cc2c(ncc3c(=O)n(-c4ccccc4)[nH]c32)s1 | > 100 | > 100 |  |  | > 100 | > 100 |  | > 100 | > 100 | > 100 | > 100 | > 100 |  |  |  |  |  |  | 
9 | Cc1ccc(C2OC(COCc3ccc(Cl)cc3)C(OCc3ccc(Cl)cc3)C2O)cc1 (configuration not stated) | 38.5 | 49.5 | 32 |  | > 100 | 71.2 | 56.7 |  | 31 |  | 26.2 | 15.6 |  |  |  |  |  |  | 
10 | CCCc1c(-c2ccccc2)[nH]c2ccccc2c1=O | > 100 | > 100 | > 100 | > 100 | > 100 | 88.2 | > 100 | > 100 | 96.7 | > 100 | 50.3 | > 100 |  |  |  |  |  |  | 
11 | Cn1c(=O)c2[nH]c(CCNC(=O)c3ccccc3)nc2n(C)c1=O | > 100 | > 100 | > 100 |  | > 100 | > 100 | > 100 | > 100 | > 100 | > 100 | > 100 | > 100 |  |  |  |  |  |  | 
12 | CCN(CC)c1ccc2cc(C(=O)Nc3ccc4[nH]c(C(=O)N5C[C@@H](CCl)c6c5cc(OC(=O)Nc5ccccc5)c5[nH]cc(C)c65)cc4c3)oc2c1 |  | > 1000 |  | 624 | 633 | > 1000 | 758 | 742 | > 1000 | > 1000 | > 1000 | > 1000 | 125 |  | 207 | 264 | 133 | > 1000 | 178
13 | COc1nc(=O)n(COC(CO)CN2C(=O)c3ccccc3C2=O)cc1Cc1cccc(OCc2ccccc2)c1 (configuration not stated) | 54.2 | > 100 | 48.9 | 41.8 |  | 91.3 | > 100 |  | 31.3 | 60.2 | > 100 | 45.2 |  |  |  |  |  |  | 
14 | O=c1ssc(=Nc2ccccc2)n1-c1ccccc1 | 46.5 | 51.8 | > 100 | 96.2 | > 100 | > 100 | > 100 | 37.1 | 53.9 | > 100 | > 100 | 98.5 |  |  |  |  |  |  | 
15 | O=C(Nc1nc2ccc([N+](=O)[O-])cc2s1)C(=O)C(C(=O)c1ccccc1F)C1OC(=O)c2ccccc21 (configuration not stated) |  | > 100 | > 100 | 51.2 | > 100 | > 100 | > 100 | > 100 | > 100 | 48.7 | > 100 | > 100 |  |  |  |  |  |  | 
16 | Nc1ccn(C2C=C(CO)C(O)C2O)c(=O)c1 (configuration not stated) | > 625 | > 625 | > 625 | > 625 |  | > 625 | > 625 | > 625 | > 625 |  | > 625 | > 625 |  |  |  |  |  |  | 
